Data: the supplement of paper PMC10307832

Legend:
Experiment in all cases: relative viability (nuclei count vs DMSO), 5 days (fraction); higher = more cells survive
[1] = compound: CCN1CCN(c2ccc(Nc3cc(N(C)C(=O)Nc4c(Cl)c(OC)cc(OC)c4Cl)ncn3)cc2)CC1 [BGJ398] + NC(=O)Nc1cc(-c2cccc(F)c2)sc1C(=O)N[C@H]1CCCNC1 [AZD7762] (partner 0.2 µM)
Summary of the method: (§1)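 Cells from lung cancer lines were seeded into 1536-well plates and, one day later, dosed by pin tool. Treatments were either a single drug or a fixed dose of an anchor drug with five library-drug doses (not always all listed) in √10 steps. After 5 days, nuclei were stained in a one-step fixation (final 0.05% Triton X-100, 1% formaldehyde, 1 ug/ml Hoechst) and counted on 4× images, and relative viability is the treated-to-vehicle nuclei ratio, as the median of duplicate plates.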

[2] = compound: C1=CC2=NC=CN=C2C=C1/C=C/3\C(=O)NC(=O)S3 + C[C@@H](Oc1cc(-c2cnn(C3CCNCC3)c2)cnc1N)c1c(Cl)ccc(F)c1Cl [Crizotinib] (partner 1 µM)
Summary of the method: as §1

[3] = compound: CCN1CCN(c2ccc(Nc3cc(N(C)C(=O)Nc4c(Cl)c(OC)cc(OC)c4Cl)ncn3)cc2)CC1 [BGJ398] + CC(C)C[C@H](NC(=O)[C@H](Cc1ccccc1)NC(=O)c1cnccn1)B(O)O [Bortezomib] (partner 0.002 µM)
Summary of the method: as §1

[4] = compound: C1=CC2=NC=CN=C2C=C1/C=C/3\C(=O)NC(=O)S3 + CC(C)C[C@H](NC(=O)[C@H](Cc1ccccc1)NC(=O)c1cnccn1)B(O)O [Bortezomib] (partner 0.002 µM)
Summary of the method: as §1

Row | Cell Line | relative viability ([1]; first compound 0.03162 µM) | relative viability ([1]; first compound 0.1 µM) | relative viability ([1]; first compound 0.3162 µM) | relative viability ([1]; first compound 1 µM) | relative viability ([2]; first compound 0.02 µM) | relative viability ([2]; first compound 0.06325 µM) | relative viability ([2]; first compound 0.2 µM) | relative viability ([2]; first compound 0.6325 µM) | relative viability ([2]; first compound 2 µM) | relative viability ([3]; first compound 0.01 µM) | relative viability ([3]; first compound 0.03162 µM) | relative viability ([3]; first compound 0.1 µM) | relative viability ([3]; first compound 0.3162 µM) | relative viability ([3]; first compound 1 µM) | relative viability ([4]; first compound 0.02 µM) | relative viability ([4]; first compound 0.06325 µM) | relative viability ([4]; first compound 0.6325 µM) | relative viability ([4]; first compound 2 µM) | relative viability ([1]; first compound 0.01 µM) | relative viability ([4]; first compound 0.2 µM)
1 | NCI-H441 | 1.07 | 1.25 | 0.961 | 1.56 | 0.577 | 0.716 | 0.698 | 0.827 | 0.644 | 0.398 | 0.991 | 0.861 | 0.4 | 0.472 | 0.272 | 0.289 | 0.403 | 0.494 |  | 
2 | NCI-H1703 | 0.136 | 0.111 | 0.122 | 0.123 | 0.638 | 0.701 | 0.656 | 0.811 | 0.674 | 0.451 | 0.467 | 0.253 | 0.261 | 0.457 | 0.288 | 0.322 | 0.474 | 0.489 | 0.117 | 0.38
3 | NCI-H1792 | 0.595 | 0.784 | 0.646 | 0.718 | 0.936 | 0.872 | 1.02 | 0.792 | 0.668 | 0.936 | 0.963 | 1.11 | 0.926 | 0.942 | 0.863 | 0.734 | 0.952 | 0.688 | 0.678 | 0.928
4 | Calu-6 |  |  |  |  | 0.781 | 0.744 | 0.758 | 0.704 | 0.781 | 0.923 | 0.963 | 1.01 | 1.07 | 0.982 | 1.03 | 1.1 | 1.1 | 0.98 |  | 1.22
5 | SK-LU-1 |  |  |  |  | 0.913 | 1.3 | 0.985 | 0.903 | 1.07 | 1.11 | 1.27 | 1.51 | 1.14 | 1.14 | 1.37 | 1.32 | 1.29 | 0.783 |  | 1.44
6 | PC-3 [JPC-3] |  | 0.781 |  | 0.837 | 0.954 | 1.01 | 0.944 | 1.01 | 1.01 | 0.851 |  | 0.914 | 0.804 | 0.765 | 0.735 | 0.853 | 0.851 | 0.852 | 0.853 | 0.879
7 | EMC-BAC-2 | 1.18 | 1.14 | 1.12 | 1.04 | 0.733 | 0.767 | 0.76 | 0.661 | 0.763 | 1.05 | 1 | 1.14 | 1.08 | 1.01 | 1.01 | 1.2 | 0.997 | 0.895 | 1.09 | 1.02
8 | LK-2 | 0.329 | 0.16 | 0.165 | 0.13 | 0.311 | 0.252 | 0.236 | 0.22 | 0.235 |  |  |  |  |  |  |  |  |  | 0.296 | 
9 | NCI-H2126 | 1.05 | 1.05 | 1.06 | 1.03 | 0.995 | 1.11 | 0.97 | 0.974 | 0.957 | 1.14 | 1.1 | 1.11 | 1.11 | 1.12 | 1.08 | 1.16 | 1.08 | 0.716 | 1.08 | 1.11
